Data from patent US11376228B2 (Genifarm Laboratories Inc, priority 2018, dated 2022).

How the values were obtained:
Format in all cases: cell-based
[1] = tested on: human prostate cancer cells PC3; assay: MTT assay, proliferation of human prostate cancer cells PC3; conditions: for IC50: Homo sapiens, PC3, MTT, 48 h, 0-32 μM, read-out: IC50 on the proliferation of human prostate cancer cells PC3; for inhibitory effects on human prostate cancer cells PC3 (in words): PC3, summary of Table 4; for effect compared with control gossypol I-A9, PC3: PC3, versus gossypol I-A9
[2] = tested on: human gastric cancer cells MKN45; assay: MTT assay, proliferation of human gastric cancer cells MKN45; conditions: for IC50: Homo sapiens, MKN-45, MKN45, MTT, 48 h, 0-60 μM, read-out: IC50 on the proliferation of human gastric cancer cells MKN45; for inhibitory effects on human gastric cancer cells MKN45 (in words): MKN45, summary of Table 1; for effect compared with control gossypol I-A9, MKN45: MKN45, versus gossypol I-A9
Experimental: (§1) The original culture medium for human gastric cancer cells MKN45 was removed, and human gastric cancer cells MKN45 were rinsed with 2 mL of phosphate buffer saline (PBS), digested with 0.5 mL of pancreatic enzyme for 3 min. 2 mL of culture medium was added to the cells and the mixture was transferred to a centrifuge tube. The mixture was centrifuged (200 g) for 5 min. The supernatant was removed. 2 mL of culture medium was sprayed five times to the remaining solution. 0.5 mL of cell suspension was transferred to an Eppendorf (EP) tube and the cells were counted. The cells were cultured on a 96-well plate, each well having 2000 cells, 3 wells for each compound. The numbers of the required cells and wells and the amount of culture medium were calculated. The cells were diluted by the culture medium. 100 μL culture medium was added to each well and were evenly dispersed, each well containing 2000 cells. The cells were transferred to the wells using a pipette, and cultured in an incubator.
(§2) (2) Adding Compounds to Culture Medium
(§3) The original culture medium was discarded, and the mother liquor of each compound was diluted to final concentrations of 0, 5, 15, 30, 45 and 60 μM, respectively. Each diluent was uniformized. To each head of a multichannel pipette, 100 μL of the diluent was introduced. Three heads were employed. The diluents were added to 3 marked wells (the cells were undamaged) of a tilted 96-well plate, respectively. Different concentrations of diluents were added to three different marked wells and evenly mixed by alternately sucking and blowing with the multichannel pipette 3 times. The 96-well plate was shaken slightly twice, and cultured in a CO2 incubator.
(§4) The cells were cultured in different compounds for 48 h and were then detected. Specifically, a clean bench was turned on for 15 min, and phosphate buffer saline (PBS) was pre-heated in a warm water bath for 15 min. MTT was taken out of a refrigerator at −20 degrees, protected from light and thawed (MTT stock solution was 5 mg/mL). MTT and a culture medium were mixed evenly in a V-shaped groove to yield a mixture comprising 500 μg/mL MTT and a culture medium (a volume ratio thereof being 1:10). 100 μL of the prepared MTT mixture was added to each well of the 96-well plate using the multichannel pipette, and then incubated at 37° C. for an appropriate time (1 h), thereby reducing the MTT to formazan (purple crystals formed in the cells under a microscope, which were different in medicated cells and unmedicated cells). The upper liquid was removed with a white pipette tip attached to a vacuum pump. For each concentration of the compounds, 3 pipette tips were employed. After the incubation, the MTT mixture was discarded, and then 100 μL of DMSO was added to each well using the multichannel pipette. The 96-well plate was shaken in a shaker for 10 min (until the purple crystals were dissolved in the cells under the microscope).
The absorbance value of the cells was measured at a wavelength of 550 nm with a microplate reader. The survival rate of the cells treated with different concentrations of compounds was calculated to make a scatter plot. The IC50 results of each compound on the proliferation of human gastric cancer cells MKN45 were shown in Table 1, where Gossypol I-A9 is a control sample.

[3] = tested on: human lung cancer cells A549; assay: MTT assay, proliferation of human lung cancer cells A549; conditions: for inhibitory effects on human lung cancer cells A549 (in words): A549, summary of Table 3; for effect compared with control gossypol I-A9, A549: A549, versus gossypol I-A9; for IC50: Homo sapiens, A549, MTT, 48 h, 0-80 μM, read-out: IC50 on the proliferation of human lung cancer cells A5499
Experimental: as §1, with “lung” for “gastric”, “A549” for “MKN45”
as §2
as §3, with “10, 20,” for “15,”, “60” for “45”, “80” for “60”
as §4
The absorbance value of the resulting solution was detected at a wavelength of 550 nm with a microplate reader. The survival rate of cells treated with different concentrations of drugs was calculated in accordance with the requirements to make a scatter plot. The IC50 results of each compound on the proliferation of human lung cancer cells A549 were shown in Table 3, where Gossypol I-A9 is a control sample.

Compound: COc1cc(OC)c(Cc2cc(C(C)C)c(O)c(O)c2C=O)c(OC)c1 [Compound I-51]
- IC50 [1]: 5.27 µM
- inhibitory effects on human prostate cancer cells PC3 (in words) [1]: significant inhibitory effects
- effect compared with control gossypol I-A9, PC3 [1]: superior than the gossypol I-A9

Compound: CC(C)c1c(O)c(O)c(C=O)c2c1C(c1ccccc1)CC2 (centres unmarked) [Compound I-50, 5,6-dihydroxy-7-isopropyl-1-phenyl-2,3-dihydro-1H-indene-4-carbaldehyde]
- IC50 [2]: 12.3 µM
- inhibitory effects on human gastric cancer cells MKN45 (in words) [2]: significant inhibitory effects
- effect compared with control gossypol I-A9, MKN45 [2]: better than the control gossypol I-A9
- IC50 [1]: 2.88 µM
- inhibitory effects on human prostate cancer cells PC3 (in words) [1]: significant inhibitory effects
- effect compared with control gossypol I-A9, PC3 [1]: superior than the gossypol I-A9

Compound: Cc1c(C)c(COCc2ccccc2)c(C=O)c(O)c1O [Compound I-39]
- IC50 [2]: 6.62 µM
- inhibitory effects on human gastric cancer cells MKN45 (in words) [2]: significant inhibitory effects
- effect compared with control gossypol I-A9, MKN45 [2]: better than the control gossypol I-A9

Compound: Cc1cc(COCc2ccccc2)c(C=O)c(O)c1O [Compound I-21, 6-((benzyloxy)methyl)-2,3-dihydroxy-4-methylbenzaldehyde]
- IC50 [1]: 8.09 µM
- inhibitory effects on human prostate cancer cells PC3 (in words) [1]: significant inhibitory effects
- effect compared with control gossypol I-A9, PC3 [1]: superior than the gossypol I-A9

Compound: Cc1c(O)c(O)c(C=O)c(COCc2ccccc2)c1-c1ccsc1 [Compound I-48]
- IC50 [1]: 22.4 µM
- inhibitory effects on human prostate cancer cells PC3 (in words) [1]: significant inhibitory effects

Compound: Cc1c(O)c(O)c(C=O)c(COCc2ccccc2)c1-c1ccccc1 [Compound I-25]
- IC50 [1]: 8.32 µM
- inhibitory effects on human prostate cancer cells PC3 (in words) [1]: significant inhibitory effects
- effect compared with control gossypol I-A9, PC3 [1]: superior than the gossypol I-A9

Compound: Cc1cc(COCc2ccccc2)c(CO)c(O)c1O [Compound I-96]
- inhibitory effects on human gastric cancer cells MKN45 (in words) [2]: significant inhibitory effects

Compound: Cc1c(O)c(O)c(C=O)c2c1C(c1ccc(C(F)(F)F)cc1)CC2 (centres unmarked) [Compound I-5]
- IC50 [1]: 7.09 µM
- inhibitory effects on human prostate cancer cells PC3 (in words) [1]: significant inhibitory effects
- effect compared with control gossypol I-A9, PC3 [1]: superior than the gossypol I-A9

Compound: CCc1c(O)c(O)c(C=O)c(Cc2c(OC)cc(OC)cc2OC)c1-c1ccccc1 [Compound I-44]
- IC50 [1]: 2.91 µM
- inhibitory effects on human prostate cancer cells PC3 (in words) [1]: significant inhibitory effects
- effect compared with control gossypol I-A9, PC3 [1]: superior than the gossypol I-A9

Compound: Cc1c(O)c(O)c(C=O)c(CC=C(c2ccccc2)c2ccccc2)c1-c1ccccc1 [Compound I-24]
- IC50 [1]: 7.24 µM
- inhibitory effects on human prostate cancer cells PC3 (in words) [1]: significant inhibitory effects
- effect compared with control gossypol I-A9, PC3 [1]: superior than the gossypol I-A9

Compound: COc1cc(OC)c(Cc2c(C=O)c(O)c(O)c(C)c2-c2ccc(Br)cc2)c(OC)c1 [Compound I-41]
- IC50 [1]: 1.76 µM
- inhibitory effects on human prostate cancer cells PC3 (in words) [1]: significant inhibitory effects
- effect compared with control gossypol I-A9, PC3 [1]: superior than the gossypol I-A9

Compound: Cc1c(O)c(O)c(C=O)c(COCc2ccccc2)c1-c1cccc2ccccc12 [Compound I-47]
- IC50 [1]: 8.12 µM
- inhibitory effects on human prostate cancer cells PC3 (in words) [1]: significant inhibitory effects
- effect compared with control gossypol I-A9, PC3 [1]: superior than the gossypol I-A9

Compound: COc1cc(OC)c(Cc2c(C=O)c(O)c(O)c(C)c2-c2ccc([N+](=O)[O-])cc2)c(OC)c1 [Compound I-42, 4,5-dihydroxy-6-methyl-4′-nitro-2-(2,4,6-trimethoxybenzyl)-(1,1′-biphenyl)-3-carbaldehyde]
- IC50 [1]: 2.8 µM
- inhibitory effects on human prostate cancer cells PC3 (in words) [1]: significant inhibitory effects
- effect compared with control gossypol I-A9, PC3 [1]: superior than the gossypol I-A9

Compound: Cc1c(O)c(O)c(C=O)c(COCc2ccccc2)c1-c1ccccc1C#N [Compound I-28]
- inhibitory effects on human lung cancer cells A549 (in words) [3]: inhibitory effects
- effect compared with control gossypol I-A9, A549 [3]: slightly inferior to that of the Gossypol I-A9
- IC50 [3]: 67.6 µM

Compound: Cc1c(O)c(O)c(C=O)c(COCc2ccccc2)c1Br [I-A8, 2-((benzyloxy)methyl)-3-bromo-5,6-dihydroxy-4-methylbenzaldehyde]
- IC50 [1]: 2.37 µM
- inhibitory effects on human prostate cancer cells PC3 (in words) [1]: significant inhibitory effects
- effect compared with control gossypol I-A9, PC3 [1]: superior than the gossypol I-A9

Compound: Cc1cc(CSCc2ccccc2)c(C=O)c(O)c1O [I-A4]
- inhibitory effects on human lung cancer cells A549 (in words) [3]: inhibitory effects
- effect compared with control gossypol I-A9, A549 [3]: slightly inferior to that of the Gossypol I-A9
- IC50 [3]: 58.9 µM

Compound: COC(=O)c1c(COCc2ccc(OC)cc2)cc(C)c(OC)c1OC [Compound I-100]
- inhibitory effects on human prostate cancer cells PC3 (in words) [1]: significant inhibitory effects

Compound: Cc1c(O)c(O)c(C=O)c(COCc2ccccc2)c1-c1ccc(C(C)(C)C)cc1 [Compound I-46]
- IC50 [1]: 6.41 µM
- inhibitory effects on human prostate cancer cells PC3 (in words) [1]: significant inhibitory effects
- effect compared with control gossypol I-A9, PC3 [1]: superior than the gossypol I-A9

Compound: Cc1c(O)c(O)c(C=O)c(COCc2ccccc2)c1-c1ccc(F)cc1 [Compound I-26]
- IC50 [2]: 16.8 µM
- inhibitory effects on human gastric cancer cells MKN45 (in words) [2]: significant inhibitory effects
- IC50 [1]: 10.1 µM
- inhibitory effects on human prostate cancer cells PC3 (in words) [1]: significant inhibitory effects

Compound: COc1cc(OC)c(Cc2c(C=O)c(O)c(O)c(C)c2-c2ccco2)c(OC)c1 [I-A6, 3-(furan-2-yl)-5,6-dihydroxy-4-methyl-2-(2,4,6-trimethoxybenzyl) benzaldehyde]
- IC50 [1]: 3.45 µM
- inhibitory effects on human prostate cancer cells PC3 (in words) [1]: significant inhibitory effects
- effect compared with control gossypol I-A9, PC3 [1]: superior than the gossypol I-A9

Compound: CC(C)c1cc(COCc2ccccc2)c(C=O)c(O)c1O [Compound I-53]
- IC50 [1]: 6.65 µM
- inhibitory effects on human prostate cancer cells PC3 (in words) [1]: significant inhibitory effects
- effect compared with control gossypol I-A9, PC3 [1]: superior than the gossypol I-A9

Compound: CC(C)c1c(O)c(O)c(C=O)c(COCc2ccccc2)c1-c1ccccc1 [Compound I-55]
- IC50 [1]: 2.05 µM
- inhibitory effects on human prostate cancer cells PC3 (in words) [1]: significant inhibitory effects
- effect compared with control gossypol I-A9, PC3 [1]: superior than the gossypol I-A9

Compound: CCc1cc(COCc2ccccc2)c(C=O)c(O)c1O [Compound I-31]
- IC50 [1]: 7.25 µM
- inhibitory effects on human prostate cancer cells PC3 (in words) [1]: significant inhibitory effects
- effect compared with control gossypol I-A9, PC3 [1]: superior than the gossypol I-A9
